{"source": "patent US7381401B2", "about": "“T cell anergy is reversed by active Ras and regulated by diacylglycerol kinase” (The University of Chicago, priority 2004, dated 2008)", "key": {"[1]": {"system": "DGK-ζ mRNA", "test": "Semi-quantitative RT-PCR of DGK-ζ mRNA in pGL10 cells", "assay_type": "cell-based, mouse", "conditions": "pGL10 cells treated with ionomycin", "method": "(§1) Induction of T cell anergy.\n(§2) RT-PCR. Total RNA was extracted using Trizol, and cDNA was generated using oligo-dT as a primer. PCR™ was done with titrated doses of cDNA using primers specific for the following genes: […]\n(§3) Between 36 and 39 cycles were performed at an annealing temperature of 55° C. Products were visualized on ethidium bromide-stained 1% agarose gels."}, "[2]": {"system": "Egr2 mRNA", "test": "Semi-quantitative RT-PCR of Egr2 mRNA in pGL10 cells", "assay_type": "cell-based, mouse", "conditions": "pGL10 cells treated with ionomycin", "method": "as §1, §2, §3"}, "[3]": {"system": "CAR transgenic Th1 clones", "test": "IL-2 production by CAR transgenic Th1 clones overexpressing DGK isoforms", "assay_type": "cell-based, mouse", "method": "Adenoviral vectors. The CA H-Ras mutant Ras61L cDNA was provided by Dr. F. Fitch (University of Chicago). Construction of recombinant adenoviral vectors was performed using a two-cosmid system protocol described by Wang et al. (2000). Briefly, a gene expression unit containing a human ubiquitin promoter and either HRas61L, GFP, DGKα, kinase-dead DGKα, DGKζ, or no cDNA was inserted into a left-end plasmid, pLEP. pLEPUb-Ras61L and the right-end-plasmid, pREP, containing the E-deleted adenovirus type 2 (Ad2) genome, were digested, ligated and resulting cosmids were packaged into lambda phages. The DGKα kinase-dead DGKα, and DGKζ inserts also have a myc epitope tag. Competent bacteria were transduced with lambda phages and double selection of growing colonies was performed on Amp/Tet plates. Recombinant adenoviruses were then generated by transfection of 293 cells with purified, linearized adenoviral vector DNA. High titer stock solutions were obtained by large-scale infection of 293 cells followed by cesium chloride purification of complete viral particles. Plaque forming units (pfu) of virus preparations were determined by TCID 50 method (AdEasy Vector Systems Manual, Quantum Biotechnologies, Canada). Working solutions of adenoviral vectors were diluted in storage buffer (Nyberg-Hoffman and Aguilar-Cordova, 1999), and stored at −80° C. until needed. […]"}, "[4]": {"system": "anergic Th1 cells", "test": "IL-2 production by anergic Th1 clone pGL10 (ELISA)", "assay_type": "cell-based, mouse", "excerpt": "as §1"}, "[5]": {"system": "anergic Th1 cells", "test": "Toxicity of the DGK inhibitor to anergic Th1 cells", "assay_type": "cell-based, mouse", "conditions": "higher concentrations (data not shown)", "excerpt": "If increased DGK activity is contributing to diminished Ras activation and IL-2 production in the anergic state, then inhibition of this enzyme should result in increased IL-2 production by anergic cells. To explore this possibility, the pharmacologic inhibitor R59022 was employed (Jiang et al., 2000). […] Approximately 40% of this IL-2 production was recovered by stimulation with PMA+Ionomycin, arguing that that proportion was mediated by a proximal signaling defect."}, "[6]": {"system": "anergic CAR Tg Th1 cells", "test": "IL-2 production by anergic CAR Tg Th1 cells (ELISA)", "assay_type": "cell-based, mouse", "conditions": "stimulated with anti-CD3/anti-CD28 beads", "excerpt": "Induction of T cell anergy. […] Adenoviral transduction of […] cells. […] T cell activation."}, "[7]": {"target": "DGKα (Homo sapiens, UniProt P23743)", "sequence (P23743 whole entry, species assumed)": "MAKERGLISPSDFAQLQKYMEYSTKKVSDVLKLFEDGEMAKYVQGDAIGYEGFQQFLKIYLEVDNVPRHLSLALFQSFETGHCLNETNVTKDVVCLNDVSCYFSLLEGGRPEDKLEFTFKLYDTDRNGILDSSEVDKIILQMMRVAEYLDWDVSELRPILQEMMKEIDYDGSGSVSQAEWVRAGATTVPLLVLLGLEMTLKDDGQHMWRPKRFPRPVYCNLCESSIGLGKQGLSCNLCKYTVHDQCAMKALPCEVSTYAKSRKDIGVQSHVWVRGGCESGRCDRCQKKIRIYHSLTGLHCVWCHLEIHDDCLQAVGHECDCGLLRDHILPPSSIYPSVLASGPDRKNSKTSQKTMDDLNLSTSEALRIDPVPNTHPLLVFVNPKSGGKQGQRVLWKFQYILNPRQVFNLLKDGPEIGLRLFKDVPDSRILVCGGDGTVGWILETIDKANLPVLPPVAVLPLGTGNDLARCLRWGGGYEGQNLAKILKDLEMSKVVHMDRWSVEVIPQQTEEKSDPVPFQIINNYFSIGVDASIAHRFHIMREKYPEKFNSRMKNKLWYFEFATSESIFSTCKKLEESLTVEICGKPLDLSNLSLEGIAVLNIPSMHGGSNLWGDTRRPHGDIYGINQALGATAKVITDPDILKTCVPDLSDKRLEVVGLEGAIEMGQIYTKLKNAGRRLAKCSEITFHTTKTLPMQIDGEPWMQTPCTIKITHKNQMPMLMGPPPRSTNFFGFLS", "conditions": "cited from earlier work"}}, "data": [{"compound": "C[C@H](CCC(=O)O)C[C@H](C)C[C@H](C)C(=O)/C=C(\\O)[C@H](C)C[C@H](C)C/C=C/[C@@H](C)[C@@H](O)[C@@H](C)[C@@H](O)C[C@@H]1CC[C@@](C)([C@H]2CC[C@@](C)([C@@H](C)O)O2)O1", "note": "[ionomycin]", "values": [{"measurement": "expression of DGK-ζ mRNA", "setting": "[1]", "value": "upregulated"}, {"measurement": "Egr2 mRNA", "setting": "[2]", "value": "only a minimal increase"}]}, {"compound": "CCCCCCCCCCCCCC(=O)O[C@@H]1[C@@H](C)[C@@]2(O)[C@@H](C=C(CO)C[C@]3(O)C(=O)C(C)=C[C@@H]23)[C@@H]2C(C)(C)[C@]12OC(C)=O", "note": "[PMA]", "values": [{"measurement": "IL-2 production on addition of exogenous PMA", "setting": "[3]; cells transduced to express DGKα", "value": "restored IL-2 production"}, {"measurement": "IL-2 production on addition of exogenous PMA", "setting": "[3]; cells transduced to express DGKζ", "value": "restored IL-2 production"}]}, {"compound": "Cc1nc2sccn2c(=O)c1CCN1CCC(=C(c2ccccc2)c2ccc(F)cc2)CC1", "note": "[R59022, 6-[2-(4-[(4-fluorophenyl)phenyl-methylene]-1-piperidinyl)ethyl]-7-methyl-5H-thiazolo[3,2-]pyrimidine-5-one]", "values": [{"measurement": "recovery of IL-2 production", "setting": "[4]; anergic Th1 clone pGL10 stimulated with anti-CD3+anti-CD28, increasing concentrations, 25 min pre-incubation, ELISA", "value": "significant recovery of IL-2 production in a dose-dependent fashion"}, {"measurement": "cytokine release by the inhibitor alone", "setting": "[4]; anergic cells, no anti-CD3/anti-CD28 stimulation (data not shown)", "value": "did not induce detectable cytokine release"}, {"measurement": "toxicity to the cells", "setting": "[5]", "value": "toxic to the cells"}, {"measurement": "IL-2 production", "setting": "[6]", "value": "partially restored IL-2 production"}, {"measurement": "DGK isoform preference", "setting": "[7]", "value": "preferentially inhibits DGKα"}]}]}
